# In ChEMBL document CHEMBL4359907, “Scalable and cost-effective tosylation-mediated synthesis of antifungal and fungal diagnostic 6″-Modified amphiphilic kanamycins” (Eur J Med Chem, 2019):
# Legend:
# Cryptococcus neoformans [1] = assay: Antifungal activity against Cryptococcus neoformans VR-54 incubated for 24 to 36 hrs by two fold dilution method; type: functional
# Diutina rugosa = assay: Antifungal activity against Candida rugosa 95-967 incubated for 24 to 36 hrs by two fold dilution method; type: functional
# Staphylococcus aureus [2] = assay: Antibacterial activity against methicillin-resistant Staphylococcus aureus ATCC 43300 incubated for 18 hrs by two fold dilution method; type: functional; conditions: ATCC 43300, 18 h
# Staphylococcus aureus [3] = assay: Antibacterial activity against methicillin-resistant Staphylococcus aureus ATCC 33591 incubated for 18 hrs by two fold dilution method; type: functional; conditions: ATCC 33591, 18 h
# Candida parapsilosis = assay: Antifungal activity against azole-resistant Candida parapsilosis Cas08-0490 incubated for 24 to 36 hrs by two fold dilution method; type: functional; conditions: Lodderomyces parapsilosis
# Candida albicans [4] = assay: Antifungal activity against azole-susceptible Candida albicans MYA2876 incubated for 24 to 36 hrs by two fold dilution method; type: functional
# Candida tropicalis = assay: Antifungal activity against Candida tropicalis 95-41 incubated for 24 to 36 hrs by two fold dilution method; type: functional
# Escherichia coli = assay: Antibacterial activity against Escherichia coli ATCC 25922 incubated for 18 hrs by two fold dilution method; type: functional; conditions: ATCC 25922, 18 h
# Staphylococcus aureus [5] = assay: Antibacterial activity against Staphylococcus aureus ATCC 25923 incubated for 18 hrs by two fold dilution method; type: functional; conditions: ATCC 25923, 18 h
# HeLa = assay: Cytotoxicity against human HeLa cells assessed as reduction in cell viability incubated for 24 hrs by MTT assay; type: cell-based
# Candida albicans [6] = assay: Antifungal activity against Candida albicans B-311 incubated for 24 to 36 hrs by two fold dilution method; type: functional
# Rhodotorula mucilaginosa = assay: Antifungal activity against Rhodotorula pilimanae ATCC 26423 incubated for 24 to 36 hrs by two fold dilution method; type: functional
# Cryptococcus neoformans [7] = assay: Antifungal activity against Cryptococcus neoformans H99 incubated for 24 to 36 hrs by two fold dilution method; type: functional
# Fusarium graminearum = assay: Antifungal activity against Fusarium graminearum B4-5A incubated for 24 to 36 hrs by two fold dilution method; type: functional
# Candida albicans [8] = assay: Antifungal activity against azole-resistant Candida albicans 64124 incubated for 24 to 36 hrs by two fold dilution method; type: functional
Compound,MIC (Cryptococcus neoformans [1]) [µg/mL],MIC (Diutina rugosa) [µg/mL],MIC (Staphylococcus aureus [2]) [µg/mL],MIC (Staphylococcus aureus [3]) [µg/mL],MIC (Candida parapsilosis) [µg/mL],MIC (Candida albicans [4]) [µg/mL],MIC (Candida tropicalis) [µg/mL],MIC (Escherichia coli) [µg/mL],MIC (Staphylococcus aureus [5]) [µg/mL],IC50 (HeLa) [µg/mL],MIC (Candida albicans [6]) [µg/mL],MIC (Rhodotorula mucilaginosa) [µg/mL],MIC (Cryptococcus neoformans [7]) [µg/mL],MIC (Fusarium graminearum) [µg/mL],MIC (Candida albicans [8]) [µg/mL]
CCCCCCCCCCCCCCNC[C@H]1O[C@H](O[C@@H]2[C@@H](O)[C@H](O[C@H]3O[C@H](CN)[C@@H](O)[C@H](O)[C@H]3O)[C@@H](N)C[C@H]2N)[C@H](O)[C@@H](N)[C@@H]1O.Cl.Cl.Cl.Cl.Cl,2,4,16,16,4,8,4,32,16,60.8,8,2,2,2,4
CCCCCCCCCCCCSC[C@H]1O[C@H](O[C@@H]2[C@@H](O)[C@H](O[C@H]3O[C@H](CN)[C@@H](O)[C@H](O)[C@H]3O)[C@@H](N)C[C@H]2N)[C@H](O)[C@@H](N)[C@@H]1O.Cl.Cl.Cl.Cl,2,16,16,32,32,16,32,16,32,> 100,32,2,2,4,16
CCCCCCNC[C@H]1O[C@H](O[C@@H]2[C@@H](O)[C@H](O[C@H]3O[C@H](CN)[C@@H](O)[C@H](O)[C@H]3O)[C@@H](N)C[C@H]2N)[C@H](O)[C@@H](N)[C@@H]1O.Cl.Cl.Cl.Cl.Cl,128,> 256,> 256,> 256,> 256,> 256,> 256,256,64,,> 256,128,128,64,> 256
CCCCCCCCCCCCCCCCSC[C@H]1O[C@H](O[C@@H]2[C@@H](O)[C@H](O[C@H]3O[C@H](CN)[C@@H](O)[C@H](O)[C@H]3O)[C@@H](N)C[C@H]2N)[C@H](O)[C@@H](N)[C@@H]1O.Cl.Cl.Cl.Cl,2,4,16,32,4,4,4,32,16,37.7,4,2,2,2,4
CCCCCCCCS(=O)(=O)OC[C@H]1O[C@H](O[C@@H]2[C@@H](O)[C@H](O[C@H]3O[C@H](CN)[C@@H](O)[C@H](O)[C@H]3O)[C@@H](N)C[C@H]2N)[C@H](O)[C@@H](N)[C@@H]1O,4,32,,,16,16,16,,,,16,4,4,8,16
CCCCCCCCCCNC[C@H]1O[C@H](O[C@@H]2[C@@H](O)[C@H](O[C@H]3O[C@H](CN)[C@@H](O)[C@H](O)[C@H]3O)[C@@H](N)C[C@H]2N)[C@H](O)[C@@H](N)[C@@H]1O.Cl.Cl.Cl.Cl.Cl,8,256,64,256,256,> 256,> 256,64,128,,256,8,8,32,128
NC[C@H]1O[C@H](O[C@H]2[C@H](O)[C@@H](O[C@H]3O[C@H](CO)[C@@H](O)[C@H](N)[C@H]3O)[C@H](N)C[C@@H]2N)[C@H](O)[C@@H](O)[C@@H]1O [KANAMYCIN],≥ 256,,> 256,> 256,,≥ 256,,4,4,,≥ 256,≥ 256,,≥ 256,≥ 256
CCCCCCCCNC[C@H]1O[C@H](O[C@@H]2[C@@H](O)[C@H](O[C@H]3O[C@H](CN)[C@@H](O)[C@H](O)[C@H]3O)[C@@H](N)C[C@H]2N)[C@H](O)[C@@H](N)[C@@H]1O.Cl.Cl.Cl.Cl.Cl,16,> 256,128,> 256,> 256,> 256,> 256,256,128,,> 256,16,16,32,256
CCCCCCCCCCSC[C@H]1O[C@H](O[C@@H]2[C@@H](O)[C@H](O[C@H]3O[C@H](CN)[C@@H](O)[C@H](O)[C@H]3O)[C@@H](N)C[C@H]2N)[C@H](O)[C@@H](N)[C@@H]1O.Cl.Cl.Cl.Cl,8,64,32,64,128,64,128,64,64,,128,4,8,32,64
CCCCCCSC[C@H]1O[C@H](O[C@@H]2[C@@H](O)[C@H](O[C@H]3O[C@H](CN)[C@@H](O)[C@H](O)[C@H]3O)[C@@H](N)C[C@H]2N)[C@H](O)[C@@H](N)[C@@H]1O.Cl.Cl.Cl.Cl,64,> 256,> 256,> 256,> 256,> 256,> 256,128,256,,> 256,32,128,256,> 256
Cc1ccc(S(=O)(=O)OC[C@H]2O[C@H](O[C@@H]3[C@@H](O)[C@H](O[C@H]4O[C@H](CN)[C@@H](O)[C@H](O)[C@H]4O)[C@@H](N)C[C@H]3N)[C@H](O)[C@@H](N)[C@@H]2O)cc1.Cl.Cl.Cl.Cl,> 256,> 256,> 256,> 256,> 256,> 256,> 256,16,32,,> 256,128,> 256,128,> 256
CCCCCCCCCCCCNC[C@H]1O[C@H](O[C@@H]2[C@@H](O)[C@H](O[C@H]3O[C@H](CN)[C@@H](O)[C@H](O)[C@H]3O)[C@@H](N)C[C@H]2N)[C@H](O)[C@@H](N)[C@@H]1O.Cl.Cl.Cl.Cl.Cl,2,16,32,64,32,64,32,16,64,> 100,32,2,2,2,16
CCCCCCCCCCCCCCSC[C@H]1O[C@H](O[C@@H]2[C@@H](O)[C@H](O[C@H]3O[C@H](CN)[C@@H](O)[C@H](O)[C@H]3O)[C@@H](N)C[C@H]2N)[C@H](O)[C@@H](N)[C@@H]1O.Cl.Cl.Cl.Cl,2,8,16,16,16,4,4,16,16,52.9,8,2,2,2,4
CCCCCCCCCCCCCCCCNC[C@H]1O[C@H](O[C@@H]2[C@@H](O)[C@H](O[C@H]3O[C@H](CN)[C@@H](O)[C@H](O)[C@H]3O)[C@@H](N)C[C@H]2N)[C@H](O)[C@@H](N)[C@@H]1O.Cl.Cl.Cl.Cl.Cl,2,4,32,32,4,8,4,32,16,41.6,4,2,2,2,4
CCCCCCCCSC[C@H]1O[C@H](O[C@@H]2[C@@H](O)[C@H](O[C@H]3O[C@H](CN)[C@@H](O)[C@H](O)[C@H]3O)[C@@H](N)C[C@H]2N)[C@H](O)[C@@H](N)[C@@H]1O.Cl.Cl.Cl.Cl,64,256,256,256,> 256,256,> 256,128,128,,> 256,32,128,128,128
